The text below walks through data of PMC7865522, “Analyzing Kinase Similarity in Small Molecule and Protein Structural Space to Explore the Limits of Multi-Target Screening” (Molecules, 2021).

Holding throughout (assay): DiscoverX KINOMEscan competition binding assay
The target of one assay is T1, VEGFR2 (Homo sapiens, UniProt P35968).
T1 construct: purchased DiscoverX (KINOMEscan service); host or cells: E. coli BL21-derived host (T7 phage) or HEK-293
The settings on record: compound 10 µM; lower values = higher affinity; below 35% = significant binding. Here is the method: (§1) Ligand binding experiments for the molecules selected from Profiles 1 and 2 towards nine kinases (EGFR, ErbB2, LCK, CDK2, BRAF, MET, p38α, PI3K and VEGFR2) and for molecules selected from Profiles 3 and 4 towards four kinases (EGFR, ErbB2, BRAF and VEGFR2) were carried out by DiscoverX using the supplied protocol as described in the Supplementary Materials. Briefly, ligand affinity was measured by competition with a resin-bound standard ligand and washed-off kinase concentration was determined via qPCR.
(§2) Summarizing, binding of a compound to a kinase was tested in comparison to a control compound (see Table S2). […]
(§3) 1.1. DiscoverX kinase assay
(§4) For most assays, kinase-tagged T7 phage strains were grown in parallel in 24-well blocks in an E.coli host derived from the BL21 strain. E.coli were grown to log-phase and infected with T7 phage from a frozen stock (multiplicity of infection = 0.4) and incubated with shaking at 32°C until lysis (90-150 minutes). The lysates were centrifuged (6,000 x g) and ﬁltered (0.2µm) to remove cell debris.
(§5) The remaining kinases were produced in HEK-293 cells and subsequently tagged with DNA for qPCR detection. Streptavidin-coated magnetic beads were treated with biotinylated small molecule ligands for 30 minutes at room temperature to generate afﬁnity resins for the kinases. The liganded beads were blocked with excess biotin and washed with blocking buffer (SeaBlock [Pierce], 1% BSA, 0.05% Tween 20, 1 mM DTT) to remove unbound ligands and to reduce non-speciﬁc phage binding. Binding reactions were assembled by combining kinases, liganded afﬁnity beads, and test compounds in 1x binding buffer (20% SeaBlock, 0.17x PBS, 0.05% Tween 20, 6 mM DTT). Test compounds were prepared as 40x stocks in 100% DMSO and directly diluted into the assay. All reactions were performed in polypropylene 384-well plates in a ﬁnal volume of 0.02 ml. The assay plates were incubated at room temperature with shaking for 1 hour and the afﬁnity beads were washed with wash buffer (1x PBS, 0.05% Tween 20). The beads were then re-suspended in elution buffer (1x PBS, 0.05% Tween 20, 0.5 µM non-biotinylated afﬁnity ligand) and incubated at room temperature with shaking for 30 minutes. The kinase concentration in the eluates was measured by qPCR. […]
(§6) Table S2. Experimental % control values from the DiscoverX kinase assay. Compounds were tested against the nine kinases EGFR, ErbB2, LCK, CDK2, BRAF, MET, p38α, PI3K and VEGFR2, unless otherwise stated. Binding of kinase and compound were tested at a compound concentration of 10 µM and in comparison to a control compound. Lower values indicate a higher afﬁnity of the compound to the protein and values below 35% indicate signiﬁcant binding according to information of the CRO. […]
(§7) a Compounds were only tested against four kinases (EGFR, ErbB2, BRAF and VEGFR2). b Compound was selected independently from two docking proﬁles and tested separately during

The next assay has as its target T2, EGFR (Homo sapiens, UniProt P00533).
T2 construct: purchased DiscoverX (KINOMEscan service); host or cells: E. coli BL21-derived host (T7 phage) or HEK-293
The conditions noted are these: compound 10 µM; lower values = higher affinity; below 35% = significant binding. As to the method:
as §1, §2, §3, §4, §5, §6, §7

The next assay addresses T3, ErbB2 (Homo sapiens, UniProt P04626).
T3 construct: purchased DiscoverX (KINOMEscan service); host or cells: E. coli BL21-derived host (T7 phage) or HEK-293
The conditions noted are these: compound 10 µM; lower values = higher affinity; below 35% = significant binding. As to the method:
as §1, §2, §3, §4, §5, §6, §7

For a further assay, the target named is T4, BRAF (Homo sapiens, UniProt P15056).
T4 construct: purchased DiscoverX (KINOMEscan service); host or cells: E. coli BL21-derived host (T7 phage) or HEK-293
The settings on record: for % control, BRAF (DiscoverX): compound 10 µM, lower values = higher affinity, below 35% = significant binding. Here is the method: as §1, §2, §3, §4, §5, §6, §7

T2 sequence (P00533 25-1210): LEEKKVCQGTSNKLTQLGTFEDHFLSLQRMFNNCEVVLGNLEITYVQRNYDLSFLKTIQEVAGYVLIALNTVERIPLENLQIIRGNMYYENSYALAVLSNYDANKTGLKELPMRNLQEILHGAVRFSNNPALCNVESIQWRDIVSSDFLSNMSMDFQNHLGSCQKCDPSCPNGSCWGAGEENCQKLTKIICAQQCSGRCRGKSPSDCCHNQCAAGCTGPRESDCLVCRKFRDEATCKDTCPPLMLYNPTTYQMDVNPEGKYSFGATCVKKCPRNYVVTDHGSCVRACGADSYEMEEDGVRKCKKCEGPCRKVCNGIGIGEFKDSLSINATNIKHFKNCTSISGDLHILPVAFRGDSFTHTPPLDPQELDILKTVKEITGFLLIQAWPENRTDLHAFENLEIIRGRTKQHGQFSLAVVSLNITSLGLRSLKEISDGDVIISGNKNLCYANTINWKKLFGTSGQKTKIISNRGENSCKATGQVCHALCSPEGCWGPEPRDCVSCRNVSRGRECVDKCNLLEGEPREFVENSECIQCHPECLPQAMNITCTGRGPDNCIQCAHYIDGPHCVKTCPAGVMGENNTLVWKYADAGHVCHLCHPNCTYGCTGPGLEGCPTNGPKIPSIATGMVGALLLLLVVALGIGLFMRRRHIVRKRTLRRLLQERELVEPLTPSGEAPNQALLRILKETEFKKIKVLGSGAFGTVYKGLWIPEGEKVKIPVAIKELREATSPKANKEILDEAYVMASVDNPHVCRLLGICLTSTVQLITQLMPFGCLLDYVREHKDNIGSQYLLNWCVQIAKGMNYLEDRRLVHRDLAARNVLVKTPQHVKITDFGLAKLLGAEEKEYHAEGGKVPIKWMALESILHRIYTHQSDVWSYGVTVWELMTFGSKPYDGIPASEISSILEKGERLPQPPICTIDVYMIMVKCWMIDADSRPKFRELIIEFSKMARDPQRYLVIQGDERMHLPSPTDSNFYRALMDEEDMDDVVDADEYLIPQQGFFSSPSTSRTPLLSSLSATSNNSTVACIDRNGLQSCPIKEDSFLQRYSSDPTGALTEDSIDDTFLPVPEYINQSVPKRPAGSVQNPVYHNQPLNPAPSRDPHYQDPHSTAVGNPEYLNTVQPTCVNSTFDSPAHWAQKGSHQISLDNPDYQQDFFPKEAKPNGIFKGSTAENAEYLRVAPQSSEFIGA
T1 sequence (P35968 20-1356): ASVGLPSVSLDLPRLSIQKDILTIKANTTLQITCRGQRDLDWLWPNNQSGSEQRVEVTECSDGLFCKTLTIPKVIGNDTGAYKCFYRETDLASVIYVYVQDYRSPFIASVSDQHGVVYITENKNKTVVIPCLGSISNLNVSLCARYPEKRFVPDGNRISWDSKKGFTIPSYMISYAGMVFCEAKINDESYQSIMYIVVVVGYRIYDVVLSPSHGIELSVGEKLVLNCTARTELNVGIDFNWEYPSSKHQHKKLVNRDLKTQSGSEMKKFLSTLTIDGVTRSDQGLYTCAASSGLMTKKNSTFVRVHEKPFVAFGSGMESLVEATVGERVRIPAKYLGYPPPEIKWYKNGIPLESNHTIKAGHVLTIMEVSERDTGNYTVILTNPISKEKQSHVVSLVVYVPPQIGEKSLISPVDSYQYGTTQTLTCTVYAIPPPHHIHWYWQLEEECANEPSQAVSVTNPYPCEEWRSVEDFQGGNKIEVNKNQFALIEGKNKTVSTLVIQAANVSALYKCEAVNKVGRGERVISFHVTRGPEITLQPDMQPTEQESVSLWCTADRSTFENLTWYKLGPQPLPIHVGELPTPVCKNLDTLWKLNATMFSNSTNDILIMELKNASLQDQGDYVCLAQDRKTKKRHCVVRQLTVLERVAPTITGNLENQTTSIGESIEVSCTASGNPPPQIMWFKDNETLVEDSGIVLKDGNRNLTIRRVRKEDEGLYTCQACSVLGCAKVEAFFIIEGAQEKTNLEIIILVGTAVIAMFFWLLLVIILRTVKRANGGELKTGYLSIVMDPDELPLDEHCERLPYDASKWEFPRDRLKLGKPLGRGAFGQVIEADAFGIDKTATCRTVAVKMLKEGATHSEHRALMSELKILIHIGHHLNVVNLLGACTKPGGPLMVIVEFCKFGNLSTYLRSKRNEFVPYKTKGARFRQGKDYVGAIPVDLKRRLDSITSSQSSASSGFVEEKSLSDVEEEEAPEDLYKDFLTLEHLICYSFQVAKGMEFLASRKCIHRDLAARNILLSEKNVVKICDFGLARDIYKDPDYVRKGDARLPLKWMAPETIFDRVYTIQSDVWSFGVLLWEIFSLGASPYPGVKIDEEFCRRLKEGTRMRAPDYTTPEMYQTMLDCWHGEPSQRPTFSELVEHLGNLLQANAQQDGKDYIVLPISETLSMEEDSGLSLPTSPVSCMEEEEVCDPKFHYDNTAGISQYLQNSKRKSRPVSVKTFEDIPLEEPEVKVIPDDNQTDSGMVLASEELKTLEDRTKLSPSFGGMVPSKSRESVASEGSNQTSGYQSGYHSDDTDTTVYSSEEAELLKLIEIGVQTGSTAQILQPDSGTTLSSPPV
T3 sequence (P04626 23-1255): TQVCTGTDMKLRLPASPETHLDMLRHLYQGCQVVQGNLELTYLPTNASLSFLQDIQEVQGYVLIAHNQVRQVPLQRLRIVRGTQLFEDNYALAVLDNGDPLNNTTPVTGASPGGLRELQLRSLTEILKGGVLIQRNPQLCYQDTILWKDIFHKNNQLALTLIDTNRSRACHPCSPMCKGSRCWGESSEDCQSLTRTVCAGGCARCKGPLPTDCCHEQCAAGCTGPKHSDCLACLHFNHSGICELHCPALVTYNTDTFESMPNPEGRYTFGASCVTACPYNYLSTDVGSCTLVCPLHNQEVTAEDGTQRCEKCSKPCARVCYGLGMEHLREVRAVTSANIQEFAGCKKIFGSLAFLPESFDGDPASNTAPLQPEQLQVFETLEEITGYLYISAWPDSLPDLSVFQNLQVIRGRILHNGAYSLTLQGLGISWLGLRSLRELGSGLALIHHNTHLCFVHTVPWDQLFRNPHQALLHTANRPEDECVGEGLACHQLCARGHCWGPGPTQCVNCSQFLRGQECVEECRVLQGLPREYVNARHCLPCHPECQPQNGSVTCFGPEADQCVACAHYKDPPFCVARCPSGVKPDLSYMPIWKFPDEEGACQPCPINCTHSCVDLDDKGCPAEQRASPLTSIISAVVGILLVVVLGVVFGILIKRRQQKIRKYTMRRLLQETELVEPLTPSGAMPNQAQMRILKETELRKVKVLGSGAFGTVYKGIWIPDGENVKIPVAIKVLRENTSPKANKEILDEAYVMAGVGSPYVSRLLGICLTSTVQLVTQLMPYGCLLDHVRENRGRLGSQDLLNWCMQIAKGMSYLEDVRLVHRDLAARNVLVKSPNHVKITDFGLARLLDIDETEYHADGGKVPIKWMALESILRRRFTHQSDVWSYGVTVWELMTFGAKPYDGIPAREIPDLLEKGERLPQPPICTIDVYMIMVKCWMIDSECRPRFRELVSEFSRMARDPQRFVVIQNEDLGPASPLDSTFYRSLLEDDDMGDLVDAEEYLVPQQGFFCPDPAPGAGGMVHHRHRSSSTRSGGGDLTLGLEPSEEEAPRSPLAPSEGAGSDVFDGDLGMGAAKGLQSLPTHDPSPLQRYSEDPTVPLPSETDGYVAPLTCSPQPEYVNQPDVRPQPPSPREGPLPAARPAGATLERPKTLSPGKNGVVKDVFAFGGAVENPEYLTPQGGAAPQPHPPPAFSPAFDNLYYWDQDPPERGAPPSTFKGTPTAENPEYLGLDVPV
T4 sequence (P15056 whole entry): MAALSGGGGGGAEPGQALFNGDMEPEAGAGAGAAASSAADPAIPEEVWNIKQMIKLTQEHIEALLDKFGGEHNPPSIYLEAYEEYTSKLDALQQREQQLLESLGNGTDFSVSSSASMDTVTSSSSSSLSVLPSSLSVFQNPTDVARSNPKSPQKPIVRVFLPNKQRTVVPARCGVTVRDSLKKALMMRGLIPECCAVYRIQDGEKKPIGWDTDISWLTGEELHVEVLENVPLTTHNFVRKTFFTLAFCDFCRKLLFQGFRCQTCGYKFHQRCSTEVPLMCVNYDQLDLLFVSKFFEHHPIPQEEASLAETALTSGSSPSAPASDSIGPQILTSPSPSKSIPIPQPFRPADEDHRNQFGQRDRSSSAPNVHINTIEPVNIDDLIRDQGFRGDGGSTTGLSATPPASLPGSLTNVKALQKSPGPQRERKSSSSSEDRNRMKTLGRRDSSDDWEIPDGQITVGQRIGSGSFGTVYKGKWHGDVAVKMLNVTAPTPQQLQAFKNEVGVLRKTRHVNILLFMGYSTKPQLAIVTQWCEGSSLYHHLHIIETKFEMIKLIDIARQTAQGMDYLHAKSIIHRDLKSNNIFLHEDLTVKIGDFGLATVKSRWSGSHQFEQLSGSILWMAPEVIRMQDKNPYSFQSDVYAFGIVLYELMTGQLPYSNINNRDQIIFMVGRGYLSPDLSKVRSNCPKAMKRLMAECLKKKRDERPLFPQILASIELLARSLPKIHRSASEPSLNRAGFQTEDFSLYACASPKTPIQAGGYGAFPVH

Turning to `CC(C)OCC(O)CN1CCN(C(=O)c2cccc(Cl)c2)CC1` (stereo not drawn) [K001MM002], the “% control, VEGFR2 (DiscoverX)” value at VEGFR2 was determined as 100 % control. For the same compound, the “% control, EGFR (DiscoverX)” value at EGFR was found to be 97 % control. Moreover, the “% control, ErbB2 (DiscoverX)” value on ErbB2 came out at 92 % control. Moreover, at BRAF, the “% control, BRAF (DiscoverX)” value came to 89 % control.
Consider `Cc1ccccc1Cn1cnc2c(nnn2-c2ccccc2)c1=O` [K001MM003], for which, at VEGFR2, the “% control, VEGFR2 (DiscoverX)” value is listed as 100 % control. Further, on EGFR, the “% control, EGFR (DiscoverX)” value was determined as 99 % control. In addition, the “% control, ErbB2 (DiscoverX)” value at ErbB2 is on record as 99 % control. For the same compound, the “% control, BRAF (DiscoverX)” value on BRAF stood at 95 % control.
On to `COCCNC(=O)NC(C)Cc1ccc(O)cc1` (stereo not drawn) [K001MM004], for which the “% control, VEGFR2 (DiscoverX)” value on VEGFR2 worked out at 100 % control. Besides, the “% control, EGFR (DiscoverX)” value at EGFR was found to be 100 % control. In addition, the “% control, ErbB2 (DiscoverX)” value on ErbB2 is 100 % control. For the same compound, the “% control, BRAF (DiscoverX)” value on BRAF is given as 100 % control.
Turning to `CCCCn1nnnc1CN1CCc2nn(CC)c(=O)cc2C1` [K001MM005], on VEGFR2, the “% control, VEGFR2 (DiscoverX)” value came out at 100 % control. For the same compound, the “% control, EGFR (DiscoverX)” value on EGFR worked out at 100 % control. The “% control, ErbB2 (DiscoverX)” value at ErbB2 turned out to be 100 % control. Moreover, the “% control, BRAF (DiscoverX)” value on BRAF stood at 99 % control.
For the compound `CCOCC(C)(C)NC(=O)Nc1cc(F)ccc1OC` [K001MM006], at VEGFR2, the “% control, VEGFR2 (DiscoverX)” value turned out to be 100 % control. Further, the “% control, EGFR (DiscoverX)” value on EGFR came out at 96 % control. Besides, the “% control, ErbB2 (DiscoverX)” value at ErbB2 is recorded as 100 % control. Moreover, the “% control, BRAF (DiscoverX)” value at BRAF came out at 100 % control.
`Cc1cccc(NC(=O)N[C@H](C)[C@H](C)N2CCOCC2)n1` [K001MM007]: the “% control, VEGFR2 (DiscoverX)” value at VEGFR2 was determined as 100 % control. The “% control, EGFR (DiscoverX)” value at EGFR is reported as 90 % control. Besides, the “% control, ErbB2 (DiscoverX)” value on ErbB2 is 94 % control. The “% control, BRAF (DiscoverX)” value at BRAF is 87 % control.
As for `Nc1nc(N2CCC[C@H](Cc3nc4ccccc4[nH]3)C2)c2nc[nH]c2n1` [K001MM010], on VEGFR2, the “% control, VEGFR2 (DiscoverX)” value was 97 % control. Moreover, the “% control, EGFR (DiscoverX)” value on EGFR stood at 95 % control. Further, the “% control, ErbB2 (DiscoverX)” value on ErbB2 was found to be 90 % control. Further, the “% control, BRAF (DiscoverX)” value at BRAF came out at 100 % control.
For the compound `CC1Oc2ccc(Nc3ncnc4c3oc3ccccc34)cc2NC1=O` (stereo not drawn) [K001MM011], the “% control, VEGFR2 (DiscoverX)” value on VEGFR2 was determined as 99 % control. Further, the “% ctrl. activity at 10 µM, BRAF (DiscoverX), printed as symbol” value on BRAF (10 µM, Table 3) is “– ^d (percent control activity ≥ 99%, i.e., no measurable inhibition)”. Also, the “% control, BRAF (DiscoverX)” value at BRAF came to 100 % control.
As for `Cc1ccc(NC(=O)COC(=O)c2cc(=O)[nH]c3ccccc23)cc1` [K001MM012], at VEGFR2, the “% control, VEGFR2 (DiscoverX)” value is on record as 91 % control. Besides, at EGFR, the “% control, EGFR (DiscoverX)” value is recorded as 90 % control. Moreover, the “% control, ErbB2 (DiscoverX)” value on ErbB2 is listed as 100 % control. On BRAF, the “% control, BRAF (DiscoverX)” value came to 100 % control.
Consider `Cc1cc(COC(=O)c2cnc3c(cnn3Cc3ccccc3)c2)on1` [K001MM013], for which the “% control, VEGFR2 (DiscoverX)” value at VEGFR2 was found to be 90 % control. The “% control, EGFR (DiscoverX)” value on EGFR was found to be 100 % control. The “% control, ErbB2 (DiscoverX)” value on ErbB2 came to 94 % control. For the same compound, the “% control, BRAF (DiscoverX)” value at BRAF stood at 100 % control.
